{"source": "patent US6337333B1", "about": "“Method of treating autoimmune disease with fludarabine-5′-monophosphate” (priority 1992, dated 2002)", "key": {"B lymphocytes": {"system": "B lymphocytes", "assay": "B lymphocyte proliferative response to mitogen after 18 hr drug pretreatment (3H-thymidine)", "format": "cell-based, human", "settings": "18 hr pretreatment; for % Suppression: B lymphocytes", "experimental": "In FIG. 1, freshly isolated PBMC were enriched for T and B lymphocytes using Nylon Wool (see Materials and Methods, Example A). The enriched lymphocyte subpopulations were then incubated for 18 hrs at 37° C. with various concentrations of drug. At the end of the pretreatment period, the cell samples were washed, adjusted to 2×10^5 viable cells/ml, and cultured at 1×10^4/well in flat (B cells) or round (T cells) bottomed 96 well microtiter plates in […]. The T cells were incubated for 3 days with PHA-P ([…]) or Con A (5 μg/ml) and the B cells were cultured for 6 days with either PWM (2 μg/ml) or SAC ({fraction (1/60,000)}). 1 μCi of ^3H-thymidine was added per well during the last 18 hr of culture. The wells were then harvested onto glass fiber filters, and counted in 7 ml of Cytoscint (ICN) on the LKB 1219 Rackbeta scintillation counter. The results are expressed as the mean cpm of triplicate wells.\nPeripheral blood mononuclear cells obtained from normal donors as packed leukocyte preparations were enriched for T and B lymphocytes and pretreated with drug for 18 hrs prior to mitogen stimulation.\nPeripheral blood mononuclear cells enriched for either T or B lymphocytes were incubated for 18 hrs in complete S-10 medium at 37° C. in 12×75 mm culture tubes at 5×10^5 cells/ml. The cells were then washed in S-10 and cultured in triplicate for either 3 (T lymphocytes) or 6 (B lymphocytes) days at 2.5×10^4/well in round bottom 96-well microtiter plates in S-10 medium at 37° C. and a 5% CO2 humidified atmosphere. The wells were pulsed with 1 μCi 3H-thymidine for the last 18 hr of culture, harvested onto glass fiber filters, and counted with 7 ml Cytoscint with a LKB Rackbeta scintillation counter. The results are reported as “percent Suppression”:\n% Suppression={1−(mean cpm exp./mean cpm stim control)}×100"}, "[1]": {"system": "CD20 positive B lymphocytes", "settings": "48 hr culture with and without PWM, dose range 0.1-5.0 μg/ml, FIG. 3", "quoted_text": "In FIG. 3, freshly isolated PBMC enriched for CD20 positive B lymphocytes (50% CD19, 45% CD20, 10% CD20/CD5 and 30% CD3/CD5) were cultured over 48 hr with various concentrations of FLP with and without PWM (5 μg/ml). The cells were washed once in C-BSS, and resuspended in 0.5 ml C-BCC with 5 μl of PI. Percent viable CD20 positive cells were determined by analysis on a FACScan using the LYSIS II software. Results are expressed as percent of total gated viable cells.\nFor viability determination of unfixed samples, 5 μl of a 500 mg/ml stock—solution of propidium iodide (PI) was added to the samples (0.5 ml)—immediately before acquisition.\nA dose range of drug between 0.1-5.0 μg/ml was performed on PBMC enriched for B lymphocytes cultured for 48 hr with and without the mitogen PWM (FIG. 3). At the end of the culture period, the cells were washed, stained, and analyzed by flowcytometry for viable CD20 positive B lymphocytes."}}, "data": [{"compound": "Nc1nc(F)nc2c1ncn2[C@@H]1O[C@H](COP(=O)(O)O)[C@@H](O)[C@@H]1O", "note": "[FLP, fludarabine-5′-monophosphate]", "values": [{"measurement": "suppression of B lymphocyte's ability to respond to mitogen", "setting": "B lymphocytes; FIG. 1B", "value": "suppress"}, {"measurement": "% Suppression", "setting": "B lymphocytes; PWM (1 μg/ml), BC5, 1 μg/ml of drug", "value": 59, "unit": "%"}, {"measurement": "% Suppression", "setting": "B lymphocytes; PWM (1 μg/ml), BC5, 5 μg/ml of drug", "value": 47, "unit": "%"}, {"measurement": "% Suppression", "setting": "B lymphocytes; PWM (1 μg/ml), BC6, 1 μg/ml of drug", "value": 11, "unit": "%"}, {"measurement": "% Suppression", "setting": "B lymphocytes; PWM (1 μg/ml), BC6, 5 μg/ml of drug", "value": 40, "unit": "%"}, {"measurement": "% Suppression", "setting": "B lymphocytes; PWM (1 μg/ml), BC7, 1 μg/ml of drug", "value": 16, "unit": "%"}, {"measurement": "% Suppression", "setting": "B lymphocytes; PWM (1 μg/ml), BC7, 5 μg/ml of drug", "value": 65, "unit": "%"}, {"measurement": "% Suppression", "setting": "B lymphocytes; SAC I (1/60,000), BC5, 1 μg/ml of drug", "value": 14, "unit": "%"}, {"measurement": "% Suppression", "setting": "B lymphocytes; SAC I (1/60,000), BC5, 5 μg/ml of drug", "value": 5, "unit": "%"}, {"measurement": "% Suppression", "setting": "B lymphocytes; SAC I (1/60,000), BC6, 1 μg/ml of drug", "value": 0, "unit": "%"}, {"measurement": "% Suppression", "setting": "B lymphocytes; SAC I (1/60,000), BC6, 5 μg/ml of drug", "value": 49, "unit": "%"}, {"measurement": "% Suppression", "setting": "B lymphocytes; SAC I (1/60,000), BC7, 1 μg/ml of drug", "value": 55, "unit": "%"}, {"measurement": "% Suppression", "setting": "B lymphocytes; SAC I (1/60,000), BC7, 5 μg/ml of drug", "value": 73, "unit": "%"}, {"measurement": "concentration at which effect on viable CD20 positive B lymphocytes becomes evident", "setting": "[1]", "value": 0.5, "unit": "µg/mL"}]}]}
